Assay results from ChEMBL document CHEMBL5308504, “Tm Shift (DSF) assay results for EUbOPEN Chemogenomics Library” (2023).

Legend:
Peregrin (Homo sapiens) = molecular target: T1, Peregrin (Homo sapiens) (UniProt P55201); conditions: Compound concentration 20.0 uM, Protein concentration 2.0 uM, Result type QC Liability
T1 sequence (whole entry): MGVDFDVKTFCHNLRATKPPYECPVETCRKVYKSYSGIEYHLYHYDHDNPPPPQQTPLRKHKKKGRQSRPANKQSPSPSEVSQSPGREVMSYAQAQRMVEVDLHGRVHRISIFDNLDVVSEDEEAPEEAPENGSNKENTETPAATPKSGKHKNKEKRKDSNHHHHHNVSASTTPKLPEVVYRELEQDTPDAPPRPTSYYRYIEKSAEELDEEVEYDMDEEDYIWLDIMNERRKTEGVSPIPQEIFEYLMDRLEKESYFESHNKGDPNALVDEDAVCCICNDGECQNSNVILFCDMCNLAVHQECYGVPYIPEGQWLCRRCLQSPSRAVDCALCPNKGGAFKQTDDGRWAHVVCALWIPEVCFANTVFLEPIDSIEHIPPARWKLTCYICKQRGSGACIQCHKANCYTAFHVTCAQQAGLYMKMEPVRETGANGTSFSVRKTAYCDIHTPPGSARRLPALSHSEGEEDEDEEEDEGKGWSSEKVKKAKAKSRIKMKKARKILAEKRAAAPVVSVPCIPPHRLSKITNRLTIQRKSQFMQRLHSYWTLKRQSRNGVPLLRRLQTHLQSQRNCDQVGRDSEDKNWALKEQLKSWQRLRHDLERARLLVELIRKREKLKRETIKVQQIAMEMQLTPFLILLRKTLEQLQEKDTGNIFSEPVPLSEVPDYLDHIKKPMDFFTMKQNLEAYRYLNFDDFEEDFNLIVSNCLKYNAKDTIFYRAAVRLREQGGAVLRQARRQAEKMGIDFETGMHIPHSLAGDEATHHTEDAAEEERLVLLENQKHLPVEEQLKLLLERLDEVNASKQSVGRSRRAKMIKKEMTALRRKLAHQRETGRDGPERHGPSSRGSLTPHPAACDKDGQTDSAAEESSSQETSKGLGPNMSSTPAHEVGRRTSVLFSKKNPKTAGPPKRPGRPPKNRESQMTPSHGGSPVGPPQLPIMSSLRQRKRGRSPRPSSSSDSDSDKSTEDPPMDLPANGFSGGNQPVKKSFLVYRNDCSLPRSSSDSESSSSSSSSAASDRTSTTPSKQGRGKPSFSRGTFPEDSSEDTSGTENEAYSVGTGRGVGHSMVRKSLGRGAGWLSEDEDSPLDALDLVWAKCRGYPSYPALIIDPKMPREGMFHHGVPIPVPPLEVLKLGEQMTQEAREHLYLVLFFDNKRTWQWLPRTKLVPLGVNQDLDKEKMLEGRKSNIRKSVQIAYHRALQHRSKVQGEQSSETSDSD

[1] = molecular target: Fibroblast growth factor receptor 3 (Homo sapiens) (UniProt P22607); conditions: Compound concentration 20.0 uM, Protein concentration 2.0 uM, Result type QC Liability
Sequence of Fibroblast growth factor receptor 3 (Homo sapiens) (P22607 23-806 limits assumed): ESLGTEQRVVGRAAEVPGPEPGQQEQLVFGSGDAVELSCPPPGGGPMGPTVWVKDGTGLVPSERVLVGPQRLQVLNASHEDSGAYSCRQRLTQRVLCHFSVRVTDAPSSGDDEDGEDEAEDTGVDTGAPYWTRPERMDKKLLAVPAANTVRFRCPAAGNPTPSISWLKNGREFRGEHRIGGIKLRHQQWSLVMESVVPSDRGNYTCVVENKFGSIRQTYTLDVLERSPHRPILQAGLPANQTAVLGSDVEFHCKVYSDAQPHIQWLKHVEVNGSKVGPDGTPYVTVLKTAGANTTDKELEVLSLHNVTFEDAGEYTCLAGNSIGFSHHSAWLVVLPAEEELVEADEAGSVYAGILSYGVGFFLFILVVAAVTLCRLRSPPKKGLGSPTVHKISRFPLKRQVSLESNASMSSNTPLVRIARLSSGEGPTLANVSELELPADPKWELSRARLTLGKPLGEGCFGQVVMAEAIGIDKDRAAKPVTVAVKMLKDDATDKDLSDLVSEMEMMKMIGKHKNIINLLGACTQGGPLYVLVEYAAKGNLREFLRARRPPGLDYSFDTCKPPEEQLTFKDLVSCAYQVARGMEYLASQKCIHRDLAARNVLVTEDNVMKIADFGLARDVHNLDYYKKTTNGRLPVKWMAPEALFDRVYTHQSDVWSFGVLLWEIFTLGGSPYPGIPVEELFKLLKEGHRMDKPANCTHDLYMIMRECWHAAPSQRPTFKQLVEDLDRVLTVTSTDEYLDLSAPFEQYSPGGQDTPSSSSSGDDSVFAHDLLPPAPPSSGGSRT
Description: Thermal Shift Assay. Domain: start/stop: P449-E759

C#Cc1cnc2[nH]cc(-c3cccc4c3CCN4C(=O)[C@@H]3CCCN3C#N)c2c1
ΔTm (Peregrin (Homo sapiens)): -12.9 °C | ΔTm [1]: 3.57 °C

COc1cc(C(=O)NCCOCCOCCOCC(=O)N[C@H](C(=O)N2C[C@@H](O)C[C@H]2C(=O)NCc2ccc(-c3scnc3C)cc2)C(C)(C)C)ccc1Nc1ncc(C(F)(F)F)c(Oc2cccc3c2C(=O)CC3)n1
ΔTm (Peregrin (Homo sapiens)): 1.72 °C | ΔTm [1]: 1.69 °C

Cc1cc(=O)n(C)c2cc(N3C(=O)CC[C@H](NS(=O)(=O)CC(C)C)[C@H]3c3ccc(Cl)cc3)ccc12
ΔTm (Peregrin (Homo sapiens)): -0.8 °C | ΔTm [1]: 0.86 °C

CC(C)(O)c1cn(-c2ccc(-c3cccc(S(C)(=O)=O)c3)cc2)c(C(C)(C)c2ccccc2Cl)n1
ΔTm (Peregrin (Homo sapiens)): -1.46 °C | ΔTm [1]: -2.28 °C

CN(C)[C@H]1C[C@H](n2cnc(-c3ccc(F)cn3)c2-c2ccnc3[nH]ccc23)C1
ΔTm (Peregrin (Homo sapiens)): -0.35 °C | ΔTm [1]: 0.61 °C

CCOC(=O)/N=C(\N)c1ccc(OCc2cccc(COc3ccc(C(C)(C)c4ccc(OC(=O)OCC)cc4)cc3)c2)cc1
ΔTm (Peregrin (Homo sapiens)): -8.55 °C | ΔTm [1]: 0.54 °C

CCO[C@H](COc1ccc(C(F)(F)F)cc1)CSc1ccc(OCC(=O)O)c(C)c1
ΔTm (Peregrin (Homo sapiens)): -0.87 °C | ΔTm [1]: 0.48 °C

O=C(Nc1ccc(N2CCC(C(=O)N3CCOCC3)CC2)cc1)c1cnc(Oc2ccccc2)nc1
ΔTm (Peregrin (Homo sapiens)): -2.41 °C | ΔTm [1]: 0.5 °C

O=C(O)[C@]1(Cc2cccc(Nc3nccs3)n2)CC[C@@H](Oc2cccc(Cl)c2F)CC1
ΔTm (Peregrin (Homo sapiens)): -3.28 °C | ΔTm [1]: 6.09 °C

CCOC(=O)c1ccc(CN(Cc2ccc(-c3cccc(S(C)(=O)=O)c3)cc2)S(=O)(=O)c2c(C)cc(C)cc2C)o1
ΔTm (Peregrin (Homo sapiens)): -3.02 °C | ΔTm [1]: -1.46 °C

CC(C(=O)Nc1cc(C#N)ccc1CCCC(=O)O)c1ccc(F)c2ccccc12 (stereo unspecified)
ΔTm (Peregrin (Homo sapiens)): -2.92 °C | ΔTm [1]: 0.51 °C

CN1CCN(c2ccc(Nc3ncc4cc5n(c4n3)C3(CCCCC3)CNC5=O)nc2)CC1
ΔTm (Peregrin (Homo sapiens)): -1.56 °C | ΔTm [1]: 0.83 °C

COc1cc(-c2cn(C)c(=O)c3cnccc23)cc(OC)c1CN(C)C
ΔTm (Peregrin (Homo sapiens)): 1.79 °C | ΔTm [1]: 0.44 °C

C[C@H](NC(=O)c1cc(Cl)ccc1Oc1ccc(F)cc1)c1ccc(C(=O)O)cc1
ΔTm (Peregrin (Homo sapiens)): -3.01 °C | ΔTm [1]: 0.47 °C

N[C@H](C(=O)O)[C@@H]1CC(Cl)=NO1
ΔTm (Peregrin (Homo sapiens)): -1.19 °C | ΔTm [1]: 0.45 °C

Cc1cnc(Nc2ccc(C(=O)N3CCN(C)CC3)cc2)nc1N[C@@H]1CCC[C@@H]1C(N)=O
ΔTm (Peregrin (Homo sapiens)): -1.57 °C | ΔTm [1]: 7.25 °C

CN(C)c1ncc2cc(-c3ccc(-c4ncccc4F)cc3Cl)c(=O)n(C[C@H]3OC[C@H](N)CO3)c2n1
ΔTm (Peregrin (Homo sapiens)): -1.55 °C | ΔTm [1]: -0.14 °C

Cc1c(CCC(=O)O)cccc1NC(=O)[C@@H](c1ccc(-c2cncc(Cl)c2)c(F)c1)C1CCCC1
ΔTm (Peregrin (Homo sapiens)): -4.03 °C | ΔTm [1]: 0.03 °C

Cc1nc2ccccc2c(-c2ccc3c4c(ccnc24)CCO3)c1[C@H](OC(C)(C)C)C(=O)O
ΔTm (Peregrin (Homo sapiens)): -2.17 °C | ΔTm [1]: 0.36 °C

CC(=O)N(CCN(C)C)c1ccc(N/C(=C2\C(=O)Nc3cc(Cl)ccc32)c2ccccc2)cn1
ΔTm (Peregrin (Homo sapiens)): -1.84 °C | ΔTm [1]: 7.35 °C

CCn1c(-c2nonc2N)nc2ccccc21
ΔTm (Peregrin (Homo sapiens)): -1.24 °C | ΔTm [1]: 0.81 °C

COc1ccc(S(=O)(=O)N2CCOCC2)cc1Nc1ccc2c(n1)N(C1CCOCC1)[C@H](C)C(=O)N2C
ΔTm (Peregrin (Homo sapiens)): 0.21 °C | ΔTm [1]: 0.08 °C

CC(C)(C)NC(=O)c1cncn1C1CCN(c2ccc(-c3nnc(C(F)(F)F)o3)cn2)CC1
ΔTm (Peregrin (Homo sapiens)): -2.22 °C | ΔTm [1]: 0.91 °C

CC(=O)N1CCN([C@H]2CCC[C@@H](NC(=O)c3cc4c(F)ccc(C)c4[nH]3)C2)CC1
ΔTm (Peregrin (Homo sapiens)): -1.84 °C | ΔTm [1]: 0.6 °C

COc1cc(C)c(S(=O)(=O)N(C)CCOCC(=O)N(C)[C@H]2CCC[C@@H](N3CCN(C)CC3)C2)c(C)c1
ΔTm (Peregrin (Homo sapiens)): -2.36 °C | ΔTm [1]: 0.64 °C

COc1cc2nc(-c3cc(F)ccc3O)nc(N[C@@H]3CNC[C@H]3C(C)(C)O)c2cc1OC
ΔTm (Peregrin (Homo sapiens)): 0.34 °C | ΔTm [1]: 1.8 °C

CCC(=O)O[C@@H](OP(=O)(CCCCc1ccccc1)CC(=O)N1C[C@H](C2CCCCC2)C[C@H]1C(=O)O)C(C)C (stereo partly specified)
ΔTm (Peregrin (Homo sapiens)): -1.88 °C | ΔTm [1]: 0.42 °C

COc1ccc(CC[C@@H](OC(=O)[C@H]2CCCCN2C(=O)[C@@H](c2cc(OC)c(OC)c(OC)c2)C2CCCCC2)c2cccc(OCCN3CCOCC3)c2)cc1OC
ΔTm (Peregrin (Homo sapiens)): -4.81 °C | ΔTm [1]: -3.96 °C
